The values that follow come from publication PMC10830684, “Effect of Oregon grape root extracts on P-glycoprotein mediated transport in in vitro cell lines” (Journal of Pharmacy & Pharmaceutical Sciences, 2024).

Data set [1] concerns MDCKII wild-type cells. The data set is described as follows: Effect on 3H-CsA and 3H-digoxin transport in MDCKII wild-type cells. The note with it: MDCKII-WT; for Papp (B to A) of 3H-CsA: 0.5 µM 3H-CsA; for Papp (B to A) of 3H-digoxin: 0.5 µM 3H-digoxin.
In data set [2] the test system is MDCKII-MDR1 cells. The data set is described as follows: MTT cytotoxicity assay in MDCKII-MDR1 cells. The data set is classed as cell-based, Canine. The note with it: 4 hours exposure. The source says: We initiated cytotoxicity experiments with the Caco-2, MDCKII-MDR1 and MDCKII-wild type cells on Day 7 (Caco-2) and Day 4 (MDCKII-MDR1 and MDCKII-wild type) after the initial plating of the cells at 2.5 × 10^3 cells/well in 48-well plates (Becton Dickinson, Franklin Lakes, NJ, USA). See details of preparation for the cytotoxicity experiments in Supplementary Material.
We initiated cytotoxicity experiments with the Caco-2, MDCKII-MDR1 and MDCKII-wild type cells on Day 7 (Caco-2) and Day 4 (MDCKII-MDR1 and MDCKII-wild type) after the initial plating of the cells at 2.5x10^3 cells/well in 48-well plates (Becton Dickinson, Franklin Lakes, NJ, USA). Stock solutions of 10 mM berberine or berbamine were prepared by dissolving the compounds in DMSO (berberine) or distilled water (berbamine). […] The final concentration of DMSO was 0.003% (v/v), 0.03% (v/v), 0.3% (v/v), 1% (v/v), 1.5% (v/v), and 3% (v/v) DMSO/culture medium for 0.3 μM, 3 μM, 30 μM, 100 μM, ,150 μM, and 300 μM, respectively. The final concentration of ethanol was 0.15% (v/v) ethanol/culture medium. Ketoconazole (75 µM) was used as a positive control and no treatment (medium alone) was used as a negative control for each experiment.
The LDH enzymatic activities were assayed using the method of Mitchell et al.(1). […] Enzyme leakage into the medium was expressed as the percentage of total cellular LDH. The MTT (3-(4,5-dimethythiazole-2yl)-2,5-diphenyl tetrazolium bromide) reduction assay was done according to Mosmann (2). This assay was conducted immediately with the same cells used in the LDH study. The results were expressed as the percentage of negative controls.
For orientation: Tetrazolium dyes change colour on reduction, which living cells bring about.

For data set [3], the target named is P-glycoprotein (MDCKII-MDR1 cells) (Homo sapiens, UniProt P08183). The data set is described as follows: Transepithelial transport of berberine and berbamine across MDCKII-MDR1 cells. The data set is classed as in vitro ADME. Also noted: expressed in transfected cells; host or cells: MDCKII-MDR1 (Madin-Darby canine kidney II cells overexpressing MDR1). The note with it: 100 µM. As for the experimental part: Transport of ^3H-CsA and ^3H-digoxin (0.5 µM and 1.0 µCi), MDR1 substrates, were performed using transport buffer consisting of HBSS with 10 mM HEPES and 25 mM D-glucose at a pH of 6.8 for the apical (A) compartment and 7.4 for the basolateral (B) compartment. Experiments were performed at 37°C, 5% CO2, and 95% relative humidity. Cells in the Transwell® inserts were washed 3 times with a transport buffer and allowed to equilibrate for 30 min prior to the addition of test compounds. […] To evaluate the efflux mechanism involved with berberine and berbamine, 100 µM of berberine and berbamine were placed in the donor chamber and 100 µL samples were collected in the receiver chamber at 0, 0.5, 1.0, 1.5, 2.0, 2.5, and 3.0 h and analyzed by HPLC. Each experiment was performed in duplicate and repeated for each condition tested. For experiments performed in “non-sink” conditions, 100 µL aliquots were taken from the donor and receiver chambers at the beginning and from the receiver chamber at 0.5, 1.0, 1.5, 2.0, 2.5, and 3.0 h. An equal volume of 100 µL was replaced in the chamber at each sample time point. […] A 100 µL sample was taken from the donor chamber at 3 h in order to calculate the mass balance of radioactivity to determine if adsorption to the cell culture transport apparatus had occurred. Each sample was placed in 0.9 mL of scintillation fluor (Cytoscint ES, ICN, Cosa Mesa, CA, USA) and read on a Beckman LS 6500 (Palo Alto, CA, USA) scintillation counter for ^3H activity. […]
Sequence of P-glycoprotein (MDCKII-MDR1 cells) (P08183 whole entry): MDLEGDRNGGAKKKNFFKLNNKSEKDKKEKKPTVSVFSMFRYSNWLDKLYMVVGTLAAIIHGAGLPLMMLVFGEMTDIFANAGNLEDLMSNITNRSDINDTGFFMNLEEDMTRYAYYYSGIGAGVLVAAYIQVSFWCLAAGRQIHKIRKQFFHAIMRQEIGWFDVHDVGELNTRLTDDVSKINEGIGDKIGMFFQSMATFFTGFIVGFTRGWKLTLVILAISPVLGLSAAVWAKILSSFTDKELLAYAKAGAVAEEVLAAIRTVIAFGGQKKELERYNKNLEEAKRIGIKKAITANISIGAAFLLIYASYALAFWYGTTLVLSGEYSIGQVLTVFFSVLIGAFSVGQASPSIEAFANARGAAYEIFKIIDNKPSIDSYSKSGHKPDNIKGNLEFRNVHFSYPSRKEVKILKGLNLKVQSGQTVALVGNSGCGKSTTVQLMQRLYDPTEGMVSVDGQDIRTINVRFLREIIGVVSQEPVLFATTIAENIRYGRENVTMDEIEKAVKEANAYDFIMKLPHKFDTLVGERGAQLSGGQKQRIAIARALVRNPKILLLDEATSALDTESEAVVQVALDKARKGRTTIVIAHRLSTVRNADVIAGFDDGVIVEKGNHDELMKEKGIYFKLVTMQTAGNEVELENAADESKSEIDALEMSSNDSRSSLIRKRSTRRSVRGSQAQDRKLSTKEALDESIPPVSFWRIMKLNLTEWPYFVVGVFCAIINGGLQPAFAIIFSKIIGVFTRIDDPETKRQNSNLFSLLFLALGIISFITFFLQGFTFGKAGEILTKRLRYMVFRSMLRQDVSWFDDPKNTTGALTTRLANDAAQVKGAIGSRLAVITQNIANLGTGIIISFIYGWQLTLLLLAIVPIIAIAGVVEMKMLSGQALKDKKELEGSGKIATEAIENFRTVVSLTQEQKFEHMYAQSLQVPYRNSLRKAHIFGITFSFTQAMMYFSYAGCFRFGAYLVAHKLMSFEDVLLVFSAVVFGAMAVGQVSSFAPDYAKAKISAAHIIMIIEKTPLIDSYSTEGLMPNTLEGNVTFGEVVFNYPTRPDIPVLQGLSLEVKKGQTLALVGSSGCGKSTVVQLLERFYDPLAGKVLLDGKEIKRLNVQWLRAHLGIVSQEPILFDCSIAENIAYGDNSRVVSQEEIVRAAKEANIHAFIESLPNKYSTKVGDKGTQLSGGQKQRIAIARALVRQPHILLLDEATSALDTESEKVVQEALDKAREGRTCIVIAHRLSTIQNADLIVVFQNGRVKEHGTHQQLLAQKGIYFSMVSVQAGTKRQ
(§1) The apparent permeability (Papp) was calculated using the following equation [40]: Papp=dQ/dt×1/A×C0
Where A is the surface area of the monolayer (4.71 cm^2) and C0 is the initial concentration of radiolabeled probe substrate in the donor compartment. dQ/dt is the slope of the steady-state rate constant. The efflux ratio was determined by dividing the Papp in the B to A direction by the Papp in the A to B direction: Efflux ratio=PappB to A/PappA to B […]

Details of data set [4]: method as in PMID 16086103. The note with it: renal-transplant patients; co-administration of 200 mg berberine three times a day for 12 days; cited from earlier work.
Data set [5] relates to Caco-2 cells. The data set is described as follows: Transepithelial transport of berberine and berbamine across Caco-2 cells. In kind it is in vitro ADME, human. The note with it: 100 µM; Caco-2 cells. As for the experimental part: Transport of ^3H-CsA and ^3H-digoxin (0.5 µM and 1.0 µCi), MDR1 substrates, were performed using transport buffer consisting of HBSS with 10 mM HEPES and 25 mM D-glucose at a pH of 6.8 for the apical (A) compartment and 7.4 for the basolateral (B) compartment. Experiments were performed at 37°C, 5% CO2, and 95% relative humidity. Cells in the Transwell® inserts were washed 3 times with a transport buffer and allowed to equilibrate for 30 min prior to the addition of test compounds. […] To evaluate the efflux mechanism involved with berberine and berbamine, 100 µM of berberine and berbamine were placed in the donor chamber and 100 µL samples were collected in the receiver chamber at 0, 0.5, 1.0, 1.5, 2.0, 2.5, and 3.0 h and analyzed by HPLC. Each experiment was performed in duplicate and repeated for each condition tested. For experiments performed in “non-sink” conditions, 100 µL aliquots were taken from the donor and receiver chambers at the beginning and from the receiver chamber at 0.5, 1.0, 1.5, 2.0, 2.5, and 3.0 h. An equal volume of 100 µL was replaced in the chamber at each sample time point. “Non-sink” conditions were performed when less than 10% of compound is transported across cells during the transport experiment such that a concentration gradient was always present. For the “sink” condition experiments, the entire receiver volume was replaced at each time interval and a 100 µL aliquot was taken from the receiver volume for scintillation counting. A 100 µL sample was taken from the donor chamber at 3 h in order to calculate the mass balance of radioactivity to determine if adsorption to the cell culture transport apparatus had occurred. Each sample was placed in 0.9 mL of scintillation fluor (Cytoscint ES, ICN, Cosa Mesa, CA, USA) and read on a Beckman LS 6500 (Palo Alto, CA, USA) scintillation counter for ^3H activity. For berberine and berbamine analysis, 100 µL aliquot was assayed by HPLC.
as §1
Where A is the surface area of the monolayer (4.71 cm^2) and C0 is the initial concentration of radiolabeled probe substrate in the donor compartment. dQ/dt is the slope of the steady-state rate constant. The efflux ratio was determined by dividing the Papp in the B to A direction by the Papp in the A to B direction: Efflux ratio=PappB to A/PappA to B
A Waters 2690 separations module with a Model 996 photodiode array detector with the Millennium 32 Chromatograph Manager version 3.0 software (Waters Corporation, Milford, MA, USA) was used for HPLC analysis. […] All the standards and samples were filtered (0.2 µm) prior to injection. Ten µL was injected onto a 250 × 4.6 mm i.d., […], Zorbax Eclipse X DB-C18 Column (Agilent Technologies, Palo Alto, CA, USA) with a 3.9 × 20 mm i.d. Symmetry® C18 guard column, with an isocratic mobile phase of 32:68 acetonitrile:buffer. The buffer consisted of 30 mM ammonium acetate and 14 mM TEA and was adjusted to pH 4.85 with acetic acid. A flow rate of 1 mL/min and UV absorption at 254 nm was used for analysis. The retention time of berberine and berbamine was 7.84 min and 3.03 min, respectively. The cumulative amount of transport was determined using the corresponding peak area for berberine or berbamine. The cumulative amount of berberine or berbamine transported across the cell membrane was evaluated as a functionof time. The Papp was calculated by the following equation: […]
(In general: Passage across Caco-2 layers is used to estimate intestinal permeability.)

As to `COc1ccc2cc3[n+](cc2c1OC)CCc1cc2c(cc1-3)OCO2.[Cl-]` [Berberine, Berberine chloride], the “Papp (B to A) of 3H-CsA” value is listed as 4.07 ± 0.56 x 10^−6 cm/s in data set [1] (10 µM compound) and 4.34 ± 0.29 x 10^−6 cm/s in data set [1] (30 µM compound). For the same molecule, the “Papp (B to A) of 3H-digoxin” value in data set [1] (10 µM compound) is reported as 7.55 ± 0.46 x 10^−6 cm/s; in data set [1] (30 µM compound), 6.95 ± 0.71 x 10^−6 cm/s. Also, the MTT assay result in data set [2] (0.03 µM), in data set [2] (3.0 µM), in data set [2] (100 µM), in data set [2] (150 µM) and in data set [2] (300 µM) was “□ (%MTT reduction is not significantly decreased compared with the negative control)” throughout. Moreover, the “Papp A to B direction” value amounted to 1.3 ×10⁻⁶ cm/s in data set [3] and 2.35 ×10⁻⁶ cm/s in data set [5]. In addition, the “Papp B to A direction” value was 15.6 ×10⁻⁶ cm/s in data set [3] and 10.4 ×10⁻⁶ cm/s in data set [5]. Further, the “fold increase of Papp B to A compared with A to B” value in data set [3] is “approximately 12 fold”; in data set [5], roughly 4 fold. In data set [4], the “increase of mean area under the curve of CsA” value is reported as 34.5%. The “transport in the A to B direction” value in data set [5] was determined as 0.18 nmol/min. The “transport in the B to A direction” value in data set [5] amounted to 1.45 nmol/min.
